Structures can show the parent of a compound that is named as a salt. Bounds are passed on as bounds.

Experimental findings from US20240150351A1, “BICYCLIC COMPOUNDS” (Aligos Therapeutics, Inc., priority 2022, published 2024) are described below.

Series [1] has as its system HBV. Description: HBV-DNA antiviral assay using HepG2.117 cells (intracellular HBV DNA by qPCR). The class given is cell-based, genotype D HBV. As to conditions: 3 days incubation, HBV DNA inhibition. The procedure:
(§1) The following assay procedure describes the HBV antiviral assay, using HepG2.117 cells, which carry a stably integrated genotype D HBV genome under the control of a Tet-off promoter, and intracellular HBV DNA quantification as endpoint. Cell viability is assessed in parallel by measuring the intracellular ATP content using CellTiter-Glo 2.0 (Promega).
On day 0, HepG2.117 cells (which are maintained in routine cell culture with doxycycline present in the medium at a final concentration of 1 μg/mL) are seeded in 96-well plates (white with clear bottom) at a density of 2.0×10^4 cells/well (0.1 mL/well) in medium without doxycycline to induce pgRNA transcription and subsequent formation of HBV particles. The cells are incubated at 37° C. and 5% CO2.
(§2) On day 1, medium is removed from each well, the test articles are diluted in culture medium without doxcycyline and 100 μL was added to cell culture wells (9 concentrations, 4-fold dilution). For each plate, 6 untreated (merely DMSO) wells are included. The final concentration of DMSO in the culture medium is 2%. Each plate is prepared in duplicate (one for HBV DNA extraction, one for CellTiter-Glo 2.0 measurement). The cells are incubated at 37° C. and 5% CO2 for 3 days.
(§3) On day 4, cell viability is assessed using CellTiter-Glo 2.0 and cell lysates are prepared for HBV DNA extraction and subsequent quantification by qPCR.
HBV DNA Quantification by qPCR
Medium is removed from each well and 100 μL of 0.33% NP-40 in H2O was added to each well. Plates are sealed, incubated at 4° C. for 5 mins, vortexed extensively and centrifuged briefly. Next, 35 μL of lysate is added to 65 μL QuickExtract DNA Extraction Solution (Epicentre) in a PCR plate for each well. PCR plate is incubated at 65° C. for 6 mins, 98° C. for 2 mins and finally cooled to 4° C. HBV DNA is then quantified by qPCR with HBV-specific primers and probes as specified in Table 2 using the Bio-Rad SSOAdvanced Universal Probes Supermix on a CFX96 machine (Bio-Rad). The PCR cycle program consisted of 95° C. for 3 mins, followed by 40 cycles at 95° C. for 10 sec and 60° C. for 30 sec.
A DNA standard is prepared by dilution of an IDT gBlock corresponding to the amplicon with concentrations ranging from 10^2 to 10^8 copies/input (i.e., per 4 μL) and used to generate a standard curve by plotting Cq values vs. HBV DNA standard concentration. The quantity of HBV DNA in each sample is determined by interpolating from the standard curve.
(§4) Cell viability is calculated as follows: % Cell viability=(luminescence value of test sample)/(average luminescence value of 2% DMSO control)×100%. HBV DNA inhibition was calculated as follows: 100−(HBV DNA copy number of test sample)/(average HBV DNA copy number of 2% DMSO control)×100%. No normalization to entecavir is required due to the excellent dynamic window of this assay. The CC50, EC50 and EC90 values were determined by dose-response curves fitted using non-linear regression.

Series [2] has as its system HepG2.117 cells. Description: Cell viability by CellTiter-Glo 2.0 (intracellular ATP content). Conditions: 3 days incubation. The class given is cell-based. As to the method: as §1, §2, §3
(§5) Using the other plates, the cell viability is quantified by CellTiter-Glo 2.0 according to the manufacturer's manual. In brief, 100 μL of reagent solution is added to the culture plates and shaken for 2′. The plates are incubated at rt for 10 min and luminescence signal is subsequently measured on a VarioSkan Lux (ThermoFisher) plate reader.
as §4

Assay in series [3]: as above
As to conditions: human, HepG2.117 cells, 3 days incubation. The class given is cell-based. As to the method: as §1, §2, §3, §5, §4

As for `C=C[C@H](C)Nc1nc2c(c(=O)n1-c1ccc(C(=O)N(C)C(=O)O[C@@H](C)OC(=O)[C@@H](N)C(C)C)cc1)C[C@@H](C)N(C(=O)c1ccc(Br)c(C(F)(F)F)c1)C2` (relative stereo) [Compound 6, (*S)-1-(((4-((R)-7-(4-bromo-3-(trifluoromethyl)benzoyl)-2-(((S)-but-3-en-2-yl)amino)-6-methyl-4-oxo-5,6,7,8-tetrahydropyrido[3,4-d]pyrimidin-3(4H)-yl)benzoyl)(methyl)carbamoyl)oxy)ethyl L-valinate hydrochloride], the EC50 (commonly the concentration at which the effect is half-maximal) in series [1] is at most 0.05 µM. For the same compound, in series [2], the CC50 (usually the concentration giving 50% cytotoxicity) was over 50 µM.

Compound `C=C[C@H](C)Nc1nc2c(c(=O)n1-c1ccc(C(=O)N(C)C(=O)O[C@H](C)OC(=O)[C@@H](N)C(C)C)cc1)C[C@@H](C)N(C(=O)c1ccc(Br)c(C(F)(F)F)c1)C2` (relative stereo) [Compound 7, (*R)-1-(((4-((R)-7-(4-bromo-3-(trifluoromethyl)benzoyl)-2-(((S)-but-3-en-2-yl)amino)-6-methyl-4-oxo-5,6,7,8-tetrahydropyrido[3,4-d]pyrimidin-3(4H)-yl)benzoyl)(methyl)carbamoyl)oxy)ethyl L-valinate hydrochloride] showed an EC50 in series [1] of at most 0.05 µM. The same compound displayed a CC50 in series [2] of over 50 µM.

As for `C=C[C@H](C)Nc1nc2c(c(=O)n1-c1ccc(C(=O)N(C)C(=O)O[C@H](OC(=O)[C@@H](N)C(C)C)C(C)C)cc1)C[C@@H](C)N(C(=O)c1ccc(Br)c(C(F)(F)F)c1)C2` (relative stereo) [Compound 10, (*S)-1-(((4-((R)-7-(4-bromo-3-(trifluoromethyl)benzoyl)-2-(((S)-but-3-en-2-yl)amino)-6-methyl-4-oxo-5,6,7,8-tetrahydropyrido[3,4-d]pyrimidin-3(4H)-yl)benzoyl)(methyl)carbamoyl)oxy)-2-methylpropyl L-valinate hydrochloride], the EC50 in series [1] is at most 0.05 µM. Further, the CC50 in series [2] is over 50 µM.

As to `C=C[C@H](C)Nc1nc2c(c(=O)n1-c1ccc(C(=O)N(C)C(=O)O[C@@H](OC(=O)[C@@H](N)C(C)C)C(C)C)cc1)C[C@@H](C)N(C(=O)c1ccc(Br)c(C(F)(F)F)c1)C2` (relative stereo) [Compound 11, (*R)-1-(((4-((R)-7-(4-bromo-3-(trifluoromethyl)benzoyl)-2-(((S)-but-3-en-2-yl)amino)-6-methyl-4-oxo-5,6,7,8-tetrahydropyrido[3,4-d]pyrimidin-3(4H)-yl)benzoyl)(methyl)carbamoyl)oxy)-2-methylpropyl L-valinate hydrochloride], in series [1], the EC50 is at most 0.05 µM. Also, the CC50 in series [2] was over 50 µM.

The compound `C=C[C@H](C)Nc1nc2c(c(=O)n1-c1ccc(C(=O)NC)cc1)C[C@@H](C)N(C(=O)c1ccc(Br)c(C(F)(F)F)c1)C2` [Compound 1, 4-((R)-7-(4-bromo-3-(trifluoromethyl)benzoyl)-2-(((S)-but-3-en-2-yl)amino)-6-methyl-4-oxo-5,6,7,8-tetrahydropyrido[3,4-d]pyrimidin-3(4H)-yl)-N-methylbenzamide] came in with an EC50 in series [1] (Hepatitis B virus, 72 h) of at most 0.05 µM. Half-maximal cytotoxicity in series [3] (CC50 at 3 days) was put at 46.8 µM.

For the compound `C=C[C@H](C)Nc1nc2c(c(=O)n1-c1ccc(C(=O)N(C)C(=O)OCOP(=O)(O)O)cc1)C[C@@H](C)N(C(=O)c1ccc(Br)c(C(F)(F)F)c1)C2` [Compound 2, (phosphonooxy)methyl (4-((R)-7-(4-bromo-3-(trifluoromethyl)benzoyl)-2-(((S)-but-3-en-2-yl)amino)-6-methyl-4-oxo-5,6,7,8-tetrahydropyrido[3,4-d]pyrimidin-3(4H)-yl)benzoyl)(methyl)carbamate], the EC50 in series [1] (Hepatitis B virus, 72 h) is at most 0.05 µM. Also, the CC50 at 3 days in series [3] was over 50 µM.

Consider `C=C[C@H](C)Nc1nc2c(c(=O)n1-c1ccc(C(=O)N(C)C(=O)OCOC(=O)/C=C/C(=O)O)cc1)C[C@@H](C)N(C(=O)c1ccc(Br)c(C(F)(F)F)c1)C2` [Compound 3, (E)-4-((((4-((R)-7-(4-bromo-3-(trifluoromethyl)benzoyl)-2-(((S)-but-3-en-2-yl)amino)-6-methyl-4-oxo-5,6,7,8-tetrahydropyrido[3,4-d]pyrimidin-3(41H)-yl)benzoyl)(methyl)carbamoyl)oxy)methoxy)-4-oxobut-2-enoic acid], for which the EC50 in series [1] (Hepatitis B virus, 72 h) is at most 0.05 µM. In series [3], the CC50 at 3 days is over 50 µM.

With `C=C[C@H](C)Nc1nc2c(c(=O)n1-c1ccc(C(=O)N(C)C(=O)OCOC(=O)[C@@H](N)C(C)C)cc1)C[C@@H](C)N(C(=O)c1ccc(Br)c(C(F)(F)F)c1)C2` [Compound 4, (((4-((R)-7-(4-bromo-3-(trifluoromethyl)benzoyl)-2-(((S)-but-3-en-2-yl)amino)-6-methyl-4-oxo-5,6,7,8-tetrahydropyrido[3,4-d]pyrimidin-3(4H)-yl)benzoyl)(methyl)carbamoyl)oxy)methyl L-valinate hydrochloride], the EC50 in series [1] (Hepatitis B virus, 72 h) is at most 0.05 µM. Besides, the CC50 at 3 days in series [3] is over 50 µM.

`C=C[C@H](C)Nc1nc2c(c(=O)n1-c1ccc(C(=O)N(C)C(=O)OCOC(=O)[C@H](N)C(C)C)cc1)C[C@@H](C)N(C(=O)c1ccc(Br)c(C(F)(F)F)c1)C2` [Compound 5, (((4-((R)-7-(4-bromo-3-(trifluoromethyl)benzoyl)-2-(((S)-but-3-en-2-yl)amino)-6-methyl-4-oxo-5,6,7,8-tetrahydropyrido[3,4-d]pyrimidin-3(4H)-yl)benzoyl)(methyl)carbamoyl)oxy)methyl D-valinate hydrochloride] registered an EC50 in series [1] (Hepatitis B virus, 72 h) of at most 0.05 µM. Besides, the CC50 at 3 days in series [3] is 48.8 µM.

Turning to `C=C[C@H](C)Nc1nc2c(c(=O)n1-c1ccc(C(=O)N(C)CO)cc1)C[C@@H](C)N(C(=O)c1ccc(Br)c(C(F)(F)F)c1)C2` [Compound 8, 4-((R)-7-(4-bromo-3-(trifluoromethyl)benzoyl)-2-(((S)-but-3-en-2-yl)amino)-6-methyl-4-oxo-5,6,7,8-tetrahydropyrido[3,4-d]pyrimidin-3(4H)-yl)-N-(hydroxymethyl)-N-methylbenzamide], the EC50 in series [1] (Hepatitis B virus, 72 h) was at most 0.05 µM. The same compound displayed a CC50 at 3 days in series [3] of over 50 µM.

Turning to `C=C[C@H](C)Nc1nc2c(c(=O)n1-c1ccc(C(=O)N(C)C(=O)OCOC(=O)C[C@H](O)C(=O)O)cc1)C[C@@H](C)N(C(=O)c1ccc(Br)c(C(F)(F)F)c1)C2` [Compound 9, (S)-4-((((4-((R)-7-(4-bromo-3-(trifluoromethyl)benzoyl)-2-(((S)-but-3-en-2-yl)amino)-6-methyl-4-oxo-5,6,7,8-tetrahydropyrido[3,4-d]pyrimidin-3(4H)-yl)benzoyl)(methyl)carbamoyl)oxy)methoxy)-2-hydroxy-4-oxobutanoic acid], the EC50 in series [1] (Hepatitis B virus, 72 h) is at most 0.05 µM. In addition, the CC50 at 3 days in series [3] was over 50 µM.
